Structures can show the parent of a compound that is named as a salt.
target: T1, IRAK4 (Homo sapiens, UniProt Q9NWZ3); assay: IRAK-4 activity inhibition assay (Caliper); type: biochemical; details: 3.5 nM IRAK4, 1.5 μM Peptide 8, 37 μM ATP, 28° C., 40 minutes
T1 construct: purchased CARNA Bioscience 09-145
T1 sequence (Q9NWZ3 1-460): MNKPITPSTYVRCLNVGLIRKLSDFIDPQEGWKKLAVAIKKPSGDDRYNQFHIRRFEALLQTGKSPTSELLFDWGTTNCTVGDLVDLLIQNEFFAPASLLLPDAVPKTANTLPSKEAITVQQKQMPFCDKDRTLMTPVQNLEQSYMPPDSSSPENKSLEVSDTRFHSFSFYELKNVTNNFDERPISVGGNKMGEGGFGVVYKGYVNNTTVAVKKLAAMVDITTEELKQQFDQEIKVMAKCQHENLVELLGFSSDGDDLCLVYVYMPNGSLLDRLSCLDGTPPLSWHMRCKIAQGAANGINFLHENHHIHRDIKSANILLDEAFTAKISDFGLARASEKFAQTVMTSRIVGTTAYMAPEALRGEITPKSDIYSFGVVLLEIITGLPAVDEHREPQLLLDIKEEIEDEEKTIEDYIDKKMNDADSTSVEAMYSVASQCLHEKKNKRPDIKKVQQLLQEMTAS
Method: A 1× kinase base buffer was prepared from 50 mM HEPES, pH 7.5 and 0.0015% Brij-35. A stop buffer was prepared from 100 mM HEPES, pH 7.5, 0.015% Brij-35, 0.2% Coating Reagent #3, and 50 mM EDTA.
Test compound was diluted to 50× of the final desired highest inhibitor concentration in reaction by 100% DMSO. 100 ul of this compound dilution was transferred to a well in a 96-well plate.
Test compound was serially diluted by transferring 30 μl to 60 μl of 100% DMSO in the next well and so forth for a total of 10 concentrations. 100 μl of 100% DMSO was added to two empty wells for no compound control and no enzyme control in the same 96-well plate.
A new 96-well plate was marked as intermediate plate. 5 μl of compound serial dilution was transferred from source plate to the corresponding wells of the intermediate plate. 45 μl of 1× kinase base buffer (KB buffer) was added to each well of the intermediate plate. The intermediate plate was placed for 10 min on a shaker.
5 μl of each well was transferred from the 96-well intermediate plate to a 384-well plate in duplicates. For example, A1 of the 96-well plate is transferred to A1 and A2 of the 384-well plate. A2 of the 96-well plate is transferred to A3 and A4 of the 384-well plate, and so on.
IRAK4 and DTT in 1× kinase base buffer was added. The 2.5× enzyme mix contained 8.8 nM IRAK4 and 5 mM DTT.
Peptide 8, ATP, MgCl2 and MnCl2 were added in the 1× kinase base buffer. The 2.5× peptide mix contained 3.75 μM peptide 8, 92.5 μM ATP, 12.5 mM MgCl2 and 2.5 mM MnCl2.
Assay plate already contained 5 μl of compound in 10% DMSO. Added 10 μl of 2.5× enzyme solution to each well of the 384-well assay plate, except no enzyme control wells. The final concentration of IRAK4 in reaction was 3.5 nM. Added 10 μl of 1× kinase base buffer to no enzyme control wells in the assay plate. Incubated at room temperature for 10 min.
Added 10 μl of 2.5× peptide solution to each well of the 384-well assay plate. The final concentration of Peptide 8 and ATP was 1.5 μM and 37 μM, respectively. Incubated at 28° C. for 40 minutes. Added 25 μl of stop buffer to stop reaction. Collected data on Caliper.
Copied conversion % data from Caliper program. Converted conversion % values to percent inhibition values. Percent inhibition=(max−conversion %)/(max−min)*100, where “max” means the conversion % of DMSO control and “min” means the conversion % of no enzyme control.

IC50	SMILES
100 to 1000 nM	CN(C)[C@H]1CC[C@H](Nc2ncnc3[nH]cc(F)c23)CC1 [Compound I-3, (trans)-N^1-(5-fluoro-7H-pyrrolo[2,3-d]pyrimidin-4-yl)-N^4,N^4-dimethylcyclohexane-1,4-diamine]
1000 to 10000 nM	Fc1c[nH]c2ncnc(O[C@H]3CC[C@H](N4CCOCC4)CC3)c12 [Compound I-6, 4-((trans)-4-((5-fluoro-7H-pyrrolo[2,3-d]pyrimidin-4-yl)oxy)cyclohexyl)morpholine]
100 to 1000 nM	CN(C)[C@H]1CC[C@H](Nc2nc(Nc3ccccc3)nc3[nH]ccc23)CC1 [Compound I-2, 4-N-[4-(dimethylamino)cyclohexyl]-2-N-phenyl-7H-pyrrolo[2,3-d]pyrimidine-2,4-diamine]
100 to 1000 nM	CN(C)[C@H]1CC[C@H](Nc2ncnc3[nH]cc(C#N)c23)CC1 [Compound I-1, 4-[[4-(dimethylamino)cyclohexyl]amino]-7H-pyrrolo[2,3-d]pyrimidine-5-carbonitrile]
≥ 10000 nM	CN(C)[C@H]1CC[C@H](Nc2nc(N)nc3[nH]ccc23)CC1 [Compound I-8, 4-N-[4-(dimethylamino)cyclohexyl]-7H-pyrrolo[2,3-d]pyrimidine-2,4-diamine]
1000 to 10000 nM	CN(C)[C@H]1CC[C@H](Nc2ncnc3oc4c(c23)CCC4)CC1 [Compound I-10, N,N-dimethyl-4-N-[7-oxa-9,11-diazatricyclo[6.4.0.0[2,6]]dodeca-1(12),2(6),8,10-tetraen-12-yl]-trans-cyclohexane-1,4-diamine]
1000 to 10000 nM	CN(C)[C@H]1CC[C@H](Oc2ncnc3[nH]cc(F)c23)CC1 [Compound I-4, (trans)-4-((5-fluoro-7H-pyrrolo[2,3-d]pyrimidin-4-yl)oxy)-N,N-dimethylcyclohexanamine]
≥ 10000 nM	CN(C)[C@H]1CC[C@H](Oc2ncnc3occc23)CC1 [Compound I-14, trans-4-(furo[2,3-d]pyrimidin-4-yloxy)-N,N-dimethylcyclohexanamine formate]
≥ 10000 nM	c1nc(O[C@H]2CC[C@H](N3CCOCC3)CC2)c2ccoc2n1 [Compound I-13, 4-(((trans)-4-morpholinocyclohexyl)oxy)furo[2,3-d]pyrimidine]
≥ 10000 nM	CN(C)[C@H]1CC[C@H](Nc2ncnc3occc23)CC1 [Compound I-12, N^1-(furo[2,3-d]pyrimidin-4-yl)-trans-N^4,N^4-dimethylcyclohexane-1,4-diamine formate]
1000 to 10000 nM	N#Cc1c[nH]c2ncnc(O[C@H]3CC[C@H](N4CCOCC4)CC3)c12 [Compound I-7, 4-(trans-(4-morpholinocyclohexyl)oxy)-7H-pyrrolo[2,3-d]pyrimidine-5-carbonitrile]
≥ 10000 nM	N[C@H]1CC[C@H](Nc2ncnc3oc4c(c23)CCC4)CC1 [Compound I-11, N^1-(6,7-dihydro-5H-cyclopenta[4,5]furo[2,3-d]pyrimidin-4-yl)-trans-cyclohexane-1,4-diamine]
1000 to 10000 nM	CN(C)[C@H]1CC[C@H](Oc2ncnc3[nH]cc(C#N)c23)CC1 [Compound I-5, 4-[[4-(dimethylamino)cyclohexyl]oxy]-7H-pyrrolo[2,3-d]pyrimidine-5-carbonitrile]

Reference: US20140018361A1, “IRAK INHIBITORS AND USES THEREOF” (Nimbus Iris, Inc., priority 2012, published 2014)
